{
  "source": "patent US6559125B1",
  "about": "“Polyamide-alkylator conjugates and related products and method” (priority 2000, dated 2003)",
  "key": {"[1]": {"test_system": "5′-end labeled and 3′-end labeled 277 base pair restriction fragment", "assay": "Thermally induced strand cleavage by seco-CBI conjugates", "type": "biochemical", "conditions": "for concentration range of alkylation by CBI control compounds: FIG. 17, 1 μM and 10 μM, 12 H, 37° C.", "procedure": "Storage phosphor autoradiograms of 8% denaturing polyacrylamide gels used to separate the fragments generated by heat induced DNA cleavage at alkylation sites. All lanes contain 10 kcpm of either 5′ or 3′ radiolabeled DNA. Each reaction was equilibrated in TE, pH 7.5 at 37° C. for 12 H. The unbound polyamide was removed by precipitation, and then strand cleavage was induced by heating at 95° C. for 30 min. (a) 5′-^32P-end labeled restriction fragment (SEQ ID NO:18). (b) 3′-^32P-end labeled restriction fragment. (a-b) lanes 1 and 14, intact DNA; lanes 2-11, 15-24, 1 pM, 2 pM, 5 pM, 10 pM, 20 pM, 50 pM, 100 pM, 200 pM, 500 pM, 1 nM respectively of the corresponding polyamide; lanes 12 and 25, A-specific reaction; lanes 13 and 26, G-specific reaction. (a-b) Ball-and-stick models of polyamides bound to match and mismatch sites on the DNA fragment. Match sites 5′-TGGTCA-3′ and 5′-AGGACT-3′ and single base pair mismatch site 5′-AGGAGT-3′ are indicated in bold on the sequence, with arrows indicating cleavage bands. The polyamide is colored as in FIG. 10, with the bold triangle representing (R)-CBI.\nStorage phosphor autoradiograms of 8% denaturing polyacrylamide gels used to separate the fragments generated by heat induced DNA cleavage at alkylation sites. All lanes contain 10 kcpm of either 5′ or 3′ radiolabeled DNA. Each reaction was equilibrated in TE, pH 7.5 at 37° C. from 0 to 10 hours. The unbound polyamide was removed by precipitation, and then strand cleavage was induced by heating at 95° C. for 30 min. (a) 5′-^32P-end labeled restriction fragment (SEQ ID NO: 18). (b) 3′-^32P-end labeled restriction fragment. (a-b) lanes 1 and 11, intact DNA; lanes 2-8, 1 nM of corresponding polyamide, equilibrations for 0, 15 minutes, 30 minutes, 1 hour, 2 hours, 5 hours, and 10 hours, respectively; lanes 9 and 19, A-specific reaction; lanes 10 and 20, G-specific reaction. (a-b) Ball-and-stick models of polyamides bound to match and mismatch sites on the DNA fragment. Match sites 5′-TGGTCA-3′ and 5′-AGGACT-3′ and single base pair mismatch site 5′-AGGAGT-3′ are indicated in bold on the sequence, with arrows indicating cleavage bands. The polyamide is colored as in FIG. 10, with the bold triangle representing (R)-CBI.\nStorage phosphor autoradiograms of 8% denaturing polyacrylamide gels used to separate the fragments generated by heat induced DNA cleavage at alkylation sites. All lanes contain 10 kcpm of either 5′ or 3′ radiolabeled DNA. Each reaction was equilibrated in TE, pH 7.5 at 37° C. for 12 H. The unbound polyamide or agent was removed by precipitation, and then strand cleavage was induced by heating at 95° C. for 30 min. (a) 5′-^32P-end labeled restriction fragment. (b) 3′-^32P-end labeled restriction fragment. (a-b) Lane 1, intact DNA; lane 2, 1R, 1 nM; lane 3 1S, 1 nM; lanes 4-5, 2R, 1 μM and 10 μM, respectively; lanes 6-7, 2S, 1 μM and 10 μM, respectively; lane 8, A-specific reaction; lane 9, G-specific reaction.\nAll reactions were carried out in a volume of 50 μl. A polyamide or seco-CBI-dimethyl gaba stock solution or water (for reference lane) was added to an assay buffer of TE (pH7.5) and […] of 3′- or 5′-radiolabeled DNA. The solutions were allowed to equilibrate for 12 hours or the appropriate time (for time course reactions) at 37° C. The reactions were stopped with 60 μl of a solution containing NaOAc (600 mM), EDTA pH 8.0 (12.5 mM), calf thymus DNA (150 μM base pair), glycogen (0.8 mg mL^−1), and NaCl (2 M). Ethanol was added to remove unbound polyamide and precipitate the products. The reactions were resuspended in 20 μl of TE (pH 7.5) and cleavage was initiated by heating at 95° C. for 30 minutes. The cleavage products were precipitated with 150 μl ethanol and then resuspended in 100 mM trisborate-EDTA/80% formamide loading buffer, and denatured and loaded onto polyacrylamide gels as previously reported. The gels were quantitated by the use of storage phosphor technology. […]"}, "[2]": {"test_system": "3′ and 5′ 32P labeled 241 base pair restriction fragments containing the HIV-1 promoter", "assay": "Thermal cleavage assay (heat-induced single-strand DNA cleavage)", "type": "biochemical", "procedure": "Storage phosphor autodiograms of 8% denaturing polyacrylamide gels used to separate the fragments generated by heat induced DNA cleavage at alkylation sites. All reactions contained 10,000 cpm restriction fragment, 10 mM Tris.HCl (pH 7.0), 10 mM KCl, 10 mM MgCl and 5 mM CaCl and were performed at 37° C. Following 24 hour of equilibration, the DNA pellet was resuspended in sodium citrate buffer (pH=7.2) and heated to 90° C. for 15 min to thermally cleave at sites of adenine- or guanine-N3 lesions. (a) 5′-^32P-end-labeled restriction fragment (SEQ ID NO:5). (b) 3′-^32P-end-labeled restriction fragment. (a-b) Lane 1, intact DNA; lane 2, A-specific reaction; lane 3, G-specific reaction; lanes 5-13, […], respectively. (b) Lane 14, 10 μM CHL-Dp (5). Center, alkylation sites on the DNA fragment, indicate by arrows. Sites 5′-TCGTCGACGA-3′ (SEQ ID NO:20) (A), 5′-ACGTCGA-3′ (B), and 5′-ACGTCGA-3′ (E) are match sites and 5′-ACATCTT-3′ (C) and 5′-TCGTCAG-3′ (D) are double base pair mismatches (mismatches indicated by gray boxes).\nStorage phosphor autodiogram of 8% denaturing polyacrylamide gels used to separate the fragments generated by heat induced DNA cleavage at alkylation sites. All reactions contained 10,000 cpm restriction fragment, 10 mM Tris.HCl (pH 7.0), 10 mM KCl, 10 mM MgCl2 and 5 mM CaCl2 and were performed at 37° C. Following of equilibrations of 10 minutes-24 hours, the DNA pellet was resuspended in sodium citrate buffer (pH=7.2) and heated to 90° C. for 15 min to thermally cleave at sites of adenine- or guanine-N3 lesions. Lane 1, intact DNA; lane 2, A-specific reaction; lane 3, G-specific reaction; lanes 4-11, 500 pM ImPy-β-ImPy-(R)^CHLγ-ImPy-β-ImPy-β-Dp (2), equilibrations for 10 min, 20 min, 30 min, 1 h, 2 h, 4 h, 12 h, 24 h, respectively. Right. models bound to match sites on the DNA fragment (SEQ ID NO:15). The polyamide is colored as in FIG. 7. The solid arrows indicate cleavage bands from cleavage sites of adenine- or guanine-N3 lesions on the restriction fragment.\nAll reactions were executed in a total volume of 40 μl. A polyamide stock solution or H2O was added to an assay buffer containing radiolabeled restriction fragment (10,000 cpm), affording final solution conditions of 10 mM Tris.HCl, 10 mM KCl, 10 mM MgCl2, 5 mM CaCl2, pH 7.0, and either 1 pM-10 nM nitrogen mustard-polyamide conjugate or no conjugate (for reference lanes). The solutions were equilibrated at 37° C. for the desired time period. The reactions were stopped by the addition of 60 μl of a solution containing 0.6 M NaOAc, 12.5 mM EDTA, 0.15 mM (bp) calf thymus DNA, 2.0 M NaCl, 0.8 mg/ml glycogen, and ethanol precipitated. Reactions were resuspended in 40 μl […] sodium citrate buffer, pH 7.2, and heated for […] The reactions were ethanol precipitated and resuspended in 1×TBE/80% formamide loading buffer, denatured by heating at 85° C. for 10 minutes, and placed on ice. The reaction products were separated by electrophoresis on an 8% polyacrylamide gel (5% cross-link, 7 M urea) in 1×TBE at 2000 V. Gels were dried and exposed to a storage phosphor screen (Molecular Dynamics) [Johnston, R. F., Pickett, S. C. & Barker, D. L. (1990). Autoradiography using storage phosphor technology. Electrophoresis 11, 355-360]."}},
  "data": [
    {"compound": "ImImPyPy-(R)^(S)-CBIγ-ImPyPyPy-β-Dp [conjugate 1S]", "values": [
      {"measurement": "site of alkylation", "setting": "[1]", "result": "alkylates adjacent to a match site"}
    ]},
    {"compound": "(R)-Seco-CBI-β-alanine-(dimethyl)-β-aminobutyric acid [2R]", "values": [
      {"measurement": "concentration range of alkylation by CBI control compounds", "setting": "[1]", "result": "alkylate only at micromolar concentrations"}
    ]},
    {"compound": "ImImPyPy-(R)^(R)-CBIγ-ImPyPyPy-β-Dp [conjugate 1R]", "values": [
      {"measurement": "alkylation efficiency and rate compared with the other enantiomer conjugate", "setting": "[1]", "result": "higher alkylation efficiency and faster rates of alkylation than 1S"},
      {"measurement": "alkylation on the 5′-labeled strand", "setting": "[1]", "result": "no alkylation"},
      {"measurement": "site of alkylation", "setting": "[1]", "result": "alkylation at the site which includes a match site for the polyamide"}
    ]},
    {"compound": "CN(C)CCCNC(=O)CCCc1ccc(N(CCCl)CCCl)cc1", "note": "[compound 4, 4-{4-[bis (2-chloroethyl)amino]phenyl}-N-[3-(dimethylamino)propyl]butanamide]", "values": [
      {"measurement": "cleavage by freely diffusing alkylator", "setting": "[2]; 10 μM concentration", "result": "no cleavage"}
    ]},
    {"compound": "(S)-Seco-CBI-β-alanine-(dimethyl)-γ-aminobutyric acid [2S]", "values": [
      {"measurement": "concentration range of alkylation by CBI control compounds", "setting": "[1]", "result": "alkylate only at micromolar concentrations"}
    ]},
    {"compound": "ImPy-β-ImPy-(R)^CHLγ-ImPy-β-ImPy-β-Dp [conjugate 2]", "values": [
      {"measurement": "concentration at which minor cleavage was observed proximal to double base pair mismatch sites", "setting": "[2]", "result": "greater than 1 nM"},
      {"measurement": "specificity for reaction at match sites over mismatch sites", "setting": "[2]", "result": "approximately 20 fold"},
      {"measurement": "earliest time at which cleavage was detectable", "setting": "[2]; 0.5 nM, pH 7.0, 37° C.", "result": 10, "unit": "min"},
      {"measurement": "final cleavage yield on the bottom strand", "setting": "[2]; 0.5 nM, pH 7.0, 37° C., 24 hours", "result": 45, "unit": "%"},
      {"measurement": "time at which alkylation was half completed at match sites", "setting": "[2]; 0.5 nM, pH 7.0, 37° C., monitored for 24 hours", "result": 2.2, "unit": "h"},
      {"measurement": "cleavage on one strand (bottom strand)", "setting": "[2]; 10 nM concentration, 37° C.", "result": "quantitative cleavage"},
      {"measurement": "alkylation at subnanomolar concentrations", "setting": "[2]; subnanomolar concentrations", "result": "high yield"}
    ]}
  ]
}
